SMILES strings stand for the structures.

What is called inhibition is the drop in the measured response relative to a control, in per cent. A high value points to a strong effect.

The target of this experiment is T1, ZAP70 (Homo sapiens, UniProt P43403).
T1 construct: purchased Thermo Fisher Scientific (Life Technologies) SelectScreen
Kind of experiment: SelectScreen Z'LYTE. The format is biochemical. The gist of the method: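 Compound tested in SelectScreen activity assays, Z'LYTE for CSF1R, CDK1/cyclin B and MAP2K6 and Adapta for CAMK1. ATP for CAMK1 was listed as 10, and Km app was used for CSF1R. Results are expressed in percent.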

T1 sequence (P43403 whole entry): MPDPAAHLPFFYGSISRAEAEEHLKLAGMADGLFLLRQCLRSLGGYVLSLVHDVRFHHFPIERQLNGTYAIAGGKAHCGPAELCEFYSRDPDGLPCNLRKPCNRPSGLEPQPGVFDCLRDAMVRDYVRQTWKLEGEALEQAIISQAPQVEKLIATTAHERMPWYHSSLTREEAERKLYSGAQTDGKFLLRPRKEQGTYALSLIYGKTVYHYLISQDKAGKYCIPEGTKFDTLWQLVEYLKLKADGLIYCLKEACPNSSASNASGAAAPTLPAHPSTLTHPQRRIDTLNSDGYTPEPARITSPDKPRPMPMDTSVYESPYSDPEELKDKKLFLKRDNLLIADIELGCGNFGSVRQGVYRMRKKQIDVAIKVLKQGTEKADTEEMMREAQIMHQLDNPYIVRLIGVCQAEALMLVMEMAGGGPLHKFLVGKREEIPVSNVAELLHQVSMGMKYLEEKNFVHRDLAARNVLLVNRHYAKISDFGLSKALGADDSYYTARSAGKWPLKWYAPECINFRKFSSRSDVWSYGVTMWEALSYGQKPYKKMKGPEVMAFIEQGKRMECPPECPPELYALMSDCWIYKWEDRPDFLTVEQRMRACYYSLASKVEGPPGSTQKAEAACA

Regarding `CN(C(=O)CN1CCOCC1)c1ccc2sc3c(-c4cccc5c(=O)cc(N6CC7CCC(C6)O7)oc45)cccc3c2c1` [NU5455], the inhibition at 1 µM came to 0.3%.

The values above are taken from PMC6934184, “Selective DNA-PKcs inhibition extends the therapeutic index of localized radiotherapy and chemotherapy” (The Journal of Clinical Investigation, 2019).
